Data on 62 compounds can be found in doi:10.1101/2021.10.07.463234v2 (biorxiv, 2021).

For orientation: %inhibition means how much of the control response was suppressed. A low value points to little suppression. The term inhibition denotes the share of the control response that was lost under treatment.

Where a name gives a salt, the structure may show the parent alone. Bridge positions count the residues as written; N and C are the ends. Square brackets hold non-standard residues; d marks the D form. Peptide text beside a SMILES is read from it. * marks the point of attachment. Ileψ(thiazoline)Cys = CC[C@H](C)[C@H](N)C1=N[C@H](C(=O)*)CS1; dOrn = NCCC[C@@H](N)C(=O)O

The first experiment has as its target SARS-CoV-2 Mac1 (Severe acute respiratory syndrome coronavirus 2, UniProt P0DTD1). Kind of experiment: biochemical. As to conditions: 100 µM; inhibitor.
Turning to `CC(=O)Oc1cc2c(s1)CCN(C(C(=O)C1CC1)c1ccccc1F)C2` (centres unmarked) [Prasugrel Hydrochloride], the “%inhibition” value stood at 0%. On the same count and under the same terms, the figure for `COc1cc(Nc2ncc(F)c(Nc3ccc4c(n3)N(COP(=O)(O)O)C(=O)C(C)(C)O4)n2)cc(OC)c1OC` [R788 (Fostamatinib) Disodium] is 15.48%; for `COc1ccc(C[C@@H]2c3cc(OC)c(OC)cc3CC[N@+]2(C)CCC(=O)OCCCCCOC(=O)CC[N@@+]2(C)CCc3cc(OC)c(OC)cc3[C@H]2Cc2ccc(OC)c(OC)c2)cc1OC` [Atracurium Besylate] it is 4.976%. Turning to `NC(=O)c1cccc2cn(-c3ccc([C@@H]4CCCNC4)cc3)nc12` [Niraparib (MK-4827)], the “%inhibition” value came to 4.387%. On the same count and under the same terms, the figure for `O=C1O[C@H]([C@@H](O)CO)C(O)=C1O` [Sodium ascorbate] is 0%; for `O=C(O)c1ccccc1` [Benzoic Acid] it is 1.824%; for `COc1cc2nc(N3CCN(C(=O)C4CCCO4)CC3)nc(N)c2cc1OC` (centres unmarked) [Terazosin HCl] it is 2.055%.

`COc1c(N2C[C@@H]3CCCN[C@@H]3C2)c(F)cc2c(=O)c(C(=O)O)cn(C3CC3)c12` [Moxifloxacin HCl]: the “%inhibition” value is on record as 0%. On the same count and under the same terms, as for `NCCc1c[nH]cn1` [Histamine Phosphate], the figure is 0%.

As to `CC(C)c1nc(N(C)S(C)(=O)=O)nc(-c2ccc(F)cc2)c1/C=C/[C@@H](O)C[C@@H](O)CC(=O)O` [Rosuvastatin Calcium], the “%inhibition” value is listed as 0%.

Still in this experiment, the particulars now being: read-out: %inhibition.
On to `CCCC(CCC)C(N)=O` [Valpromide], for which the inhibition at 100 µM was determined as 13.2%. For the compound `Cc1ncc(C[n+]2csc(CCO)c2C)c(N)n1` [Thiamine HCl (Vitamin B1)], the inhibition at 100 µM was 0%. Still for that read-out and setting: the figure for `CC(=O)N[C@@H](CCC(N)=O)C(=O)O` [Aceglutamide] is 0%; for `Cc1cc(C)cc(OCC2CNC(=O)O2)c1` (centres unmarked) [Metaxalone] it is 0%.

Turning to `C[C@H](Cc1cc2c(c(C(N)=O)c1)N(CCCO)CC2)NCCOc1ccccc1OCC(F)(F)F` [Silodosin], the inhibition at 100 µM is 0%. On the same count and under the same terms, the figure for `CCOC(=O)CCC(=O)O[C@H]1[C@H](O[C@@H]2[C@@H](C)[C@H](O[C@H]3C[C@@](C)(OC)[C@@H](O)[C@H](C)O3)[C@@H](C)C(=O)O[C@H](CC)[C@@](C)(O)[C@H](O)[C@@H](C)C(=O)[C@H](C)C[C@@]2(C)O)O[C@H](C)C[C@@H]1N(C)C` [Erythromycin Ethylsuccinate] is 0%.

In the case of `CSCCNc1nc(SCCC(F)(F)F)nc2c1ncn2[C@@H]1O[C@H](COP(=O)(O)OP(=O)(O)C(Cl)(Cl)P(=O)(O)O)[C@@H](O)[C@H]1O` [Cangrelor Tetrasodium], the inhibition at 100 µM came out at 0%.

`CC(=O)O[C@]1(C(C)=O)CC[C@H]2[C@@H]3C=C(Cl)C4=CC(=O)CC[C@]4(C)[C@H]3CC[C@@]21C` [Chlormadinone acetate]: the inhibition at 100 µM worked out at 0%. Consider `NC(=NCCCCCCN=C(N)/N=C(\N)Nc1ccc(Cl)cc1)/N=C(\N)Nc1ccc(Cl)cc1` [Chlorhexidine], for which the inhibition at 100 µM was 10%. Turning to `O=C(O)C(O)[C@H](O)[C@@H](O)[C@H](O)[C@H](O)CO` (some centres unmarked) [Calcium Gluceptate], the inhibition at 100 µM is 0%.

`CC1=CC(=O)c2ccccc2C1=O` [Menadione]: the inhibition at 100 µM worked out at 1.18%. With `O=S(=O)(c1cccc2cnccc12)N1CCCNCC1` [Fasudil (HA-1077) HCl], the inhibition at 100 µM was 0%. The same measure, in the same setting: the figure for `OCCN1CCN(CC/C=C2/c3ccccc3Sc3ccc(C(F)(F)F)cc32)CC1` [Flupenthixol dihydrochloride] is 12.3%. Regarding `NC(=O)Cc1cccc(C(=O)c2ccccc2)c1N` [Nepafenac], the inhibition at 100 µM worked out at 0%.

Consider `CCCCCCOC(=O)NC(=N)c1ccc(NCc2nc3cc(C(=O)N(CCC(=O)OCC)c4ccccn4)ccc3n2C)cc1` [Dabigatran Etexilate], for which the inhibition at 100 µM is 0%. The same measure, in the same setting: the figure for `CCCc1nc(C(C)(C)O)c(C(=O)O)n1Cc1ccc(-c2ccccc2-c2nnn[nH]2)cc1` [Olmesartan] is 0%; for `CCN(CC)CCNC(=O)c1c(C)[nH]c(/C=C2\C(=O)Nc3ccc(F)cc32)c1C` [Sunitinib Malate] it is 16.2%; for `CC(CN(C)C)CN1c2ccccc2CCc2ccccc21` (centres unmarked) [Trimipramine Maleate] it is 0%. `CCCCCNC(=N)N/N=C/c1c[nH]c2ccc(OC)cc12` [Tegaserod Maleate]: the inhibition at 100 µM was 1.73%. The same measure, in the same setting: the figure for `Cc1ccnc2c1NC(=O)c1cccnc1N2C1CC1` [Nevirapine] is 20.6%. Turning to `CN(C)CCN(Cc1ccccc1)c1ccccn1` [Tripelennamine HCl], the inhibition at 100 µM is 0%.

As to `COC(=O)[C@H]1[C@H]2C[C@@H]3c4[nH]c5cc(OC)ccc5c4CCN3C[C@H]2C[C@@H](OC(=O)c2cc(OC)c(OC)c(OC)c2)[C@@H]1OC` [Reserpine], the inhibition at 100 µM worked out at 0%. Same read-out and setting: the figure for `CC(C)NCC(O)COc1ccc(COCCOC(C)C)cc1` (centres unmarked) [Bisoprolol fumarate] is 0%; for `CC[C@H](Nc1ncnc2[nH]cnc12)c1nc2cccc(F)c2c(=O)n1-c1ccccc1` [Idelalisib (CAL-101, GS-1101)] it is 0%; for `CC(C)C[C@H](NC(=O)CNC(=O)[C@H](Cc1ccc(O)cc1)NC(=O)[C@H](CO)NC(=O)[C@H](Cc1c[nH]c2ccccc12)NC(=O)[C@H](Cc1cnc[nH]1)NC(=O)[C@@H]1CCC(=O)N1)C(=O)N[C@@H](CCCNC(=N)N)C(=O)N1CCC[C@H]1C(=O)NCC(N)=O` [Gonadorelin Acetate] it is 0%. On to `CN[C@@H]1[C@@H](O)[C@@H](O[C@@H]2[C@@H](O)[C@H](O[C@H]3OC(CN)=CC[C@H]3N)[C@@H](N)C[C@H]2N)OC[C@]1(C)O` [Sisomicin sulfate], for which the inhibition at 100 µM came to 0%. For the compound `CC(C)[C@@H]1CC[C@@H](C)C[C@H]1O` [(-)-Menthol], the inhibition at 100 µM was 0%.

Turning to `C#CC1(O)CC[C@H]2[C@@H]3CCC4=CC(=O)CC[C@@H]4[C@H]3CC[C@@]21CC` (some centres unmarked) [Norgestrel], the inhibition at 100 µM was found to be 0%. Same read-out and setting: the figure for `C[C@H](CCC(=O)O)[C@H]1CC[C@H]2[C@@H]3[C@H](O)C[C@@H]4C[C@H](O)CC[C@]4(C)[C@H]3CC[C@]12C` [Chenodeoxycholic Acid] is 0%; for `O=C(O)COCCN1CCN([C@H](c2ccccc2)c2ccc(Cl)cc2)CC1` [Levocetirizine Dihydrochloride] it is 7.84%. With `CC[C@H](C)[C@H](N)C1=N[C@H](C(=O)N[C@@H](CC(C)C)C(=O)N[C@H](CCC(=O)O)C(=O)N[C@H](C(=O)N[C@H]2CCCCNC(=O)[C@H](CC(N)=O)NC(=O)[C@@H](CC(=O)O)NC(=O)[C@H](Cc3cnc[nH]3)NC(=O)[C@@H](Cc3ccccc3)NC(=O)[C@H]([C@@H](C)CC)NC(=O)[C@@H](CCCN)NC2=O)[C@@H](C)CC)CS1` [Bacitracin] ({Ileψ(thiazoline)Cys}-L[dE]IK[dOrn]I[dF]H[dD]N; lactam 4-C), the inhibition at 100 µM turned out to be 0%. On the same count and under the same terms, the figure for `COc1cccc(-c2c(C)n(Cc3c(F)cccc3C(F)(F)F)c(=O)n(C[C@H](NCCCC(=O)O)c3ccccc3)c2=O)c1F` [Elagolix Sodium] is 0%; for `N=C(N)N` [Guanidine HCl] it is 14%. With `Cn1c(=O)c2c(ncn2CC2OCCO2)n(C)c1=O` [Doxofylline], the inhibition at 100 µM is 1.49%. Regarding `N#C[C@@H]1CCCN1C(=O)CNC12CC3CC(CC(O)(C3)C1)C2` [Vildagliptin (LAF-237)], the inhibition at 100 µM was 11.7%. On to `CN(C)c1ccc2nc3ccc(=[N+](C)C)cc-3sc2c1` [Methylene Blue], for which the inhibition at 100 µM was determined as 43.3%. In the case of `COc1cc(/C=C/C(=O)CC(=O)/C=C/c2ccc(O)c(OC)c2)ccc1O` [Curcumin], the inhibition at 100 µM is 1.88%. Take `NCCc1c[nH]c2ccc(O)cc12` [Serotonin HCl]: the inhibition at 100 µM was determined as 8.8%. Take `c1ccc([C@H]2CN3CCSC3=N2)cc1` [Levamisole hydrochloride]: the inhibition at 100 µM was 0%.

As to `O=C1/C(=C2\Nc3ccc(S(=O)(=O)O)cc3C2=O)Nc2ccc(S(=O)(=O)O)cc21` [Indigo carmine], the inhibition at 100 µM came to 39.3%. On the same count and under the same terms, as for `Cn1c(=O)c2[nH]cnc2n(C)c1=O` [Aminophylline], the figure is 5.61%. `O=C1NC(=O)[C@@H](c2cn3c4c(cccc24)CCC3)[C@@H]1c1c[nH]c2ccccc12` [Tivantinib (ARQ 197)]: the inhibition at 100 µM stood at 1.02%. On to `CC[C@]1(O)C[C@H]2CN(CCc3c([nH]c4ccccc34)[C@@](C(=O)OC)(c3cc4c(cc3OC)N(C=O)[C@H]3[C@@](O)(C(=O)OC)[C@H](OC(C)=O)[C@]5(CC)C=CCN6CC[C@]43[C@@H]65)C2)C1` [Vincristine sulfate], for which the inhibition at 100 µM stood at 42.2%. Still for that read-out and setting: as for `Cc1cccc(C(C)c2c[nH]cn2)c1C` (centres unmarked) [Medetomidine HCl], the figure is 21.9%; as for `CC(=O)S[C@@H]1CC2=CC(=O)CC[C@]2(C)[C@H]2CC[C@@]3(C)[C@@H](CC[C@@]34CCC(=O)O4)[C@H]12` [Spironolactone], 6.62%; as for `C[C@@H](O)[C@H]1C(=O)N2C(C(=O)O)=C(SCCNC=N)C[C@H]12` [Imipenem], 9.79%. Same read-out and setting: as for `O=C(O)c1ccc(NC(=O)[C@H](Cc2ccc(O)cc2)NC(=O)c2ccccc2)cc1` [Bentiromide], the figure is 3.94%. Still for that read-out and setting: as for `CCCC[N+]1(C)[C@@H]2C[C@@H](OC(=O)[C@H](CO)c3ccccc3)C[C@H]1[C@@H]1O[C@@H]12` (some centres unmarked) [Butylscopolamine Bromide], the figure is 0%; as for `CN1C(C(=O)Nc2ccccn2)=C(O)c2sc(Cl)cc2S1(=O)=O` [Lornoxicam], 18.3%. For `N#C[C@@H]1C[C@H]2C[C@H]2N1C(=O)[C@@H](N)[C@@]12C[C@@H]3C[C@@H](C[C@@](O)(C3)C1)C2` [Saxagliptin], the inhibition at 100 µM amounted to 12.8%.

Take `O=C(N[C@H](CO)[C@H](O)c1ccc([N+](=O)[O-])cc1)C(Cl)Cl` [Chloramphenicol]: the inhibition at 100 µM came to 0%. On the same count and under the same terms, the figure for `COC(=O)CCC(=O)CN` [Methyl Aminolevulinate Hydrochloride] is 3.98%.
